The results in this text go back to the NIST ThermoML archive (doi:10.1016/j.jct.2006.07.002).

SMILES strings stand for the structures. Numbers after ± are expanded uncertainties.

For series [1] the following is noted: 293.15 K; 101.33 kPa; Liquid.
A short description of series [2]: refractive index (Na D-line) (dimensionless). To be noted: 293.15 K; 101.33 kPa; Liquid; Standard Abbe refractometry.
Series [3] can be described thus: Boiling temperature at pressure P. To be noted: Liquid, Distillation.

In the case of `CCCC(=O)O` [butanoic acid], in series [1], the mass density amounted to 952.8 ± 0.58 kg/m3. Also, the refractive index in series [2] is listed as 1.3975 ± 0.0007.
`COC(=O)CCC(=O)OC` [dimethyl 1,4-butanedioate]: the mass density in series [1] worked out at 1119.13 ± 2.3 kg/m3. Moreover, the “Boiling temperature at pressure P” value in series [3] (101.33 kPa) was 196.1 ± 0.2 °C. Also, in series [2], the refractive index worked out at 1.41969 ± 0.00078.
In the case of `COC(=O)CCCC(=O)OC` [dimethyl pentanedioate], the mass density in series [1] is given as 1087.67 ± 0.76 kg/m3. Further, the “Boiling temperature at pressure P” value in series [3] (101.33 kPa) was determined as 214.2 ± 0.2 °C. The refractive index in series [2] came to 1.42454 ± 0.0007.
Consider `COC(=O)CCCCC(=O)OC` [dimethyl 1,6-hexanedioate], for which the mass density in series [1] was 1061.72 ± 0.67 kg/m3. Also, the “Boiling temperature at pressure P” value in series [3] (1.733 kPa) is 115 ± 1 °C. Moreover, the refractive index in series [2] is 1.42825 ± 0.0007.

As usually defined, the mass density is mass per unit of volume. The refractive index is a measure of how strongly the sample bends light.
